Values of other authors in patent publication US4271152A, “Psycho-pharmacological peptides” (Akzo N.V., priority 1979, dated 1981).
“Also recorded” adds a separate entry of the source.

Columns and labels:
[1] = system: avoidance behaviour of rats; details: pole-jumping test; for extinction of the (pole-jumping) avoidance behaviour: background knowledge / earlier Dutch application
[2] = can be antagonized by naloxon

For D-Ala^2 -Met-enkephalin, the “affinity to the opiate receptor” value (opiate receptor) is given as “affinity to the opiate receptor”.

For Leu-enkephaline, the “affinity to the opiate receptor” value (opiate receptor) is listed as “affinity to the opiate receptor”.

In the case of Met-enkephalin, the “extinction of the (pole-jumping) avoidance behaviour” value [1] is given as “inhibit the extinction of the avoidance behaviour” and the “affinity to the opiate receptor” value (opiate receptor) is given as “affinity to the opiate receptor”.

For α-endorphin, the “extinction of the (pole-jumping) avoidance behaviour” value [1] is given as “inhibit the extinction of the avoidance behaviour; also recorded: delayed the extinction of the avoidance behaviour” and the “affinity to the opiate receptor” value (opiate receptor) is given as “affinity to the opiate receptor”.

For “β-endorphin (YGGFMTSEKSQTPLVTLFKNAIIKNAYKKGE; Beta-endorphin; UniProt P01189 237-267, looked up)”, the “counteraction by morphine antagonists (naloxon, naltrexon) of the inhibition of extinction” value [1] is listed as “cannot be counteracted by known morphine antagonists”, the “extinction of the (pole-jumping) avoidance behaviour” value [1] is listed as “inhibits the extinction” and the analgetic effect [2] is listed as “analgetic effect”.

For γ-endorphin, the “extinction of the (pole-jumping) avoidance behaviour” value [1] is listed as “accelerate the extinction of the avoidance behaviour”.
